Laboratory results reported in patent US10653653B2, “Salts of 5-aminolevulinic acid and derivatives” (priority 2016, dated 2020).

Tests used:
A549 cells = assay: Measurement of PpIX formation in A549 cells in vitro; type: cell-based, human
Experimental: Test samples were dissolved with sterile saline to a concentration of 100 mM as stock solution. The stock solution was diluted to desired concentrations with culture medium or phosphate buffered solution (PBS).
A549 cells (ATCC), derived from human lung carcinoma, were grown in F12 medium (Gibco) containing 4.5 g/L glucose, 10% FCS, and penicillin/streptomycin, at 37° C. and 6% CO2 in a humid environment. For measurement purposes, the cells were sub-cultured in 48-well or 96-well dishes to give 5×10^4 cells/well 24 hours prior to incubation with test salts. The cells were washed twice with PBS and test solutions were added to the culture. After cells were incubated for 4, 8 or 24 hours, the medium was detached and the plates were rinsed twice with PBS, and PpIX natural fluorescence was measured at 360±40 nm excitation and 620±40 nm emission (CytoFluor Series 4000, Perspective Biosystems, MA, USA). The experiment was conducted in triplets.

[1] = test system: upper surface of the tongue; assay: Measurement of potential skin irritation/stimulation on tongue surface; type: in vivo; set-up: key: A: no irritation; B: irritation; C: strong irritation; D: very strong irritation; conditions: 3 mg on upper surface of the tongue for 3-5 minutes
Experimental: The potential irritation/stimulation of test samples was carried out by applying 3 mg of each sample to the upper surface of the tongue for 3-5 minutes and then evaluated.

[2] = Measurement of hydroscopicity (weight change method); type: physicochemical; conditions: sealed container, moisture of 70-85%, ambient temperature, 24 hours
Experimental: Hydroscopicity of salts from present disclosure was measured using a weight change method. The test samples were placed in a sealed container with moisture of 70-85% at ambient temperature for 24 hours and their weigh change was measured. All three hydrochloride salts of 5-ALA, 5-MAL and 5-HAL, and 5-ALA TCA were hygroscopic, their weight was increased by 25˜75%.

Compound	Activity (relative activity to induce porphyrin formation) (A549 cells; 0.5 mM, 4 hrs)	Activity (relative activity to induce porphyrin formation) (A549 cells; 0.5 mM, 8 hrs)	Activity (relative activity to induce porphyrin formation) (A549 cells; 0.5 mM, 24 hrs)	Activity (relative activity to induce porphyrin formation) (A549 cells; 1 mM, 4 hrs)	Activity (relative activity to induce porphyrin formation) (A549 cells; 1 mM, 8 hrs)	Activity (relative activity to induce porphyrin formation) (A549 cells; 1 mM, 24 hrs)	irritation/stimulation on tongue surface ([1]; participant 1)	irritation/stimulation on tongue surface ([1]; participant 2)	irritation/stimulation on tongue surface ([1]; participant 3)	irritation/stimulation on tongue surface ([1]; participant 4)	appearance of sample after moisture exposure [2]	weight change (weight increase) [2]	Activity (relative activity to induce porphyrin formation) (A549 cells; 10 mM, 4 hrs)	Activity (relative activity to induce porphyrin formation) (A549 cells; 10 mM, 8 hrs)	Activity (relative activity to induce porphyrin formation) (A549 cells; 10 mM, 24 hrs)
Hexyl 5-Aminolevulinate 2,2,2-Trichloroacetate [5-HAL TCA]	1.15 ± 0.05	1.57 ± 0.11	2.72 ± 0.10	~2	~4	~10	B	B	A	B	unchanged as crystalline solid	remained unchanged	–	–	–
Cl.NCC(=O)CCC(=O)O [5-ALA HCl, 5-aminolevulinic acid hydrochloride, reference compound]	–	–	–	–	–	–	D	C	D	C	turned to a liquid due to deliquescence	–	1.00	1.42 ± 0.04	2.35 ± 0.19
Methyl 5-Aminolevulinate 2,2,2-Trichloroacetate [5-MAL TCA]	–	–	–	–	–	–	B	B	B	B	unchanged as crystalline solid	< 5%	1.20 ± 0.04	1.25 ± 0.02	2.20 ± 0.16
CCCCCCOC(=O)CCC(=O)CN.Cl [5-HAL HCl, Hexyl 5-aminolevulinate hydrochloride, reference compound]	1.20 ± 0.15	1.57 ± 0.08	2.92 ± 0.30	~2	~4	~10	B	C	C	B	turned to a liquid due to deliquescence	–	–	–	–
5-Aminolevulinic Acid 2,2,2-Trichloroacetate [5-ALA TCA]	–	–	–	–	–	–	B	B	B	B	turned to a liquid due to deliquescence	–	1.00 ± 0.02	1.30 ± 0.06	2.50 ± 0.17
COC(=O)CCC(=O)CN.Cl [5-MAL HCl, methyl 5-aminolevulinate hydrochloride, reference compound]	–	–	–	–	–	–	C	C	C	C	turned to a liquid due to deliquescence	–	1.27 ± 0.04	1.60 ± 0.12	2.22 ± 0.16
